What was measured:
Experiment in all cases: KINOMEscan
Format in all cases: binding
Conditions in all cases: 35 at 1 µM; read-out: % inhibition
[1] = biological target: T1, ABL1(T315I)-phosphorylated (Homo sapiens, UniProt P00519, T315I)
T1 construct: purchased Eurofins DiscoverX (KINOMEscan)
Method: (§1) KinomeScan Assay on 35 was performed as previously described at EuroFins DiscoverX (Fremont, CA, USA).

ACVRL1 = biological target: T2, ACVRL1 (Homo sapiens, UniProt P37023)
T2 construct: purchased Eurofins DiscoverX (KINOMEscan)
T2 sequence (P37023 22-503): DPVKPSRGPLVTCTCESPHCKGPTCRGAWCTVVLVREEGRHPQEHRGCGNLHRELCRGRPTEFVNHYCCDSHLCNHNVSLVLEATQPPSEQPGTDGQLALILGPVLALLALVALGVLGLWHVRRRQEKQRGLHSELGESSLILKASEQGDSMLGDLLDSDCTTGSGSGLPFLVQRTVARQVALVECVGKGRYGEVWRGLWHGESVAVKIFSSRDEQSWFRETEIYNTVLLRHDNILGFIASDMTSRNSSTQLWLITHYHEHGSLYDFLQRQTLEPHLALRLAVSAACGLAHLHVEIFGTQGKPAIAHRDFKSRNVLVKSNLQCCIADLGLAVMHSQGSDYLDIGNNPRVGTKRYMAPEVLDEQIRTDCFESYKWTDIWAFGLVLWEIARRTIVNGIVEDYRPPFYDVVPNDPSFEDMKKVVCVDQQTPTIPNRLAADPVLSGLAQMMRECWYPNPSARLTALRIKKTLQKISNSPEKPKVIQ
Method: as §1

CDC2L1 = biological target: T3, CDC2L1 (Homo sapiens, UniProt P21127)
T3 construct: purchased Eurofins DiscoverX (KINOMEscan)
Method: as §1

CDKL5 = biological target: T4, CDKL5 (Homo sapiens, UniProt O76039)
T4 construct: purchased Eurofins DiscoverX (KINOMEscan)
Method: as §1

CLK1 = biological target: T5, CLK1 (Homo sapiens, UniProt P49759)
T5 construct: purchased Eurofins DiscoverX (KINOMEscan)
Method: as §1

CLK3 = biological target: T6, CLK3 (Homo sapiens, UniProt P49761)
T6 construct: purchased Eurofins DiscoverX (KINOMEscan)
T6 sequence (P49761 whole entry): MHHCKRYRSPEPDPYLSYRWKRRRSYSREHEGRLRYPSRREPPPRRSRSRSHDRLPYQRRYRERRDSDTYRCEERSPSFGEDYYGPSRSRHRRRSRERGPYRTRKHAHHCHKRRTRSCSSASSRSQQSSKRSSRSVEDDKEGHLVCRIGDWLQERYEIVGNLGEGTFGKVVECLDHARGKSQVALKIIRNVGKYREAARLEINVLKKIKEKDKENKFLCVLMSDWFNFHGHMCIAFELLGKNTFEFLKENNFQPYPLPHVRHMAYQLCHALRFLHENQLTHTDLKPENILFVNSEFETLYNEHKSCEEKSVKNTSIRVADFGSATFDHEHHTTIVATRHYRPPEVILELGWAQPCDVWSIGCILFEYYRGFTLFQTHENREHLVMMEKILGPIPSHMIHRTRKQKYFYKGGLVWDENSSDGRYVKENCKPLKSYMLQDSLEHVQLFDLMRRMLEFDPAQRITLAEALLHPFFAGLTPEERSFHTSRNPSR
Method: as §1

CSNK2A2 = biological target: T7, CSNK2A2 (Homo sapiens, UniProt P19784)
T7 construct: purchased Eurofins DiscoverX (KINOMEscan)
Method: as §1

DDR1 = biological target: T8, DDR1 (Homo sapiens, UniProt Q08345)
T8 construct: purchased Eurofins DiscoverX (KINOMEscan)
T8 sequence (Q08345 19-913): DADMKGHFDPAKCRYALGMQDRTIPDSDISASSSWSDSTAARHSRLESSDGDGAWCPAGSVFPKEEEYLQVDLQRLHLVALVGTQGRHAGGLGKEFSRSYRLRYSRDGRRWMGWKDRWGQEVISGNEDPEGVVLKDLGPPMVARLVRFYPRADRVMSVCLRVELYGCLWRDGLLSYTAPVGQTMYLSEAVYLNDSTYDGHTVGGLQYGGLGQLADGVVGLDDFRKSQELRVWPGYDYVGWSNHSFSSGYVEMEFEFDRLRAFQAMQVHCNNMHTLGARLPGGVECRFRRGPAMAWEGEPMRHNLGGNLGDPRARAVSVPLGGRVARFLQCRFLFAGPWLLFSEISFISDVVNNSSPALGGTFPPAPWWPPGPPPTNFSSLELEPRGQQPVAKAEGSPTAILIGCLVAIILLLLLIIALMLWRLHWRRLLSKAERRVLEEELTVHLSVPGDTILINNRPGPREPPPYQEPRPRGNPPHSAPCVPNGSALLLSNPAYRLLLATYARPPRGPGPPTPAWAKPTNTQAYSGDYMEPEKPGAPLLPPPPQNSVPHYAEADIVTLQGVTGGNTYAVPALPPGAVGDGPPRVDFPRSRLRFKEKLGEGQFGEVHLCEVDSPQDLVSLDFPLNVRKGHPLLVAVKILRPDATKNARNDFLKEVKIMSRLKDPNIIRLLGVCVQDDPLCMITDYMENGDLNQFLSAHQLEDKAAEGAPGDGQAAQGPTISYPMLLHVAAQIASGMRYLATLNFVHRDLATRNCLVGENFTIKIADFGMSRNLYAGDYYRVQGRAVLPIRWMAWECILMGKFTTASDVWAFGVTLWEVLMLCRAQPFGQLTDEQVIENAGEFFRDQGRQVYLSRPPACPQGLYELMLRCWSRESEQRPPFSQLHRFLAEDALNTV
Method: as §1

DDR2 = biological target: T9, DDR2 (Homo sapiens, UniProt Q16832)
T9 construct: purchased Eurofins DiscoverX (KINOMEscan)
Method: as §1

EGFR(G719C) = biological target: T10, EGFR(G719C) (Homo sapiens, UniProt P00533, G719C)
T10 construct: purchased Eurofins DiscoverX (KINOMEscan)
Method: as §1

EGFR(L858R,T790M) = biological target: T11, EGFR(L858R,T790M) (Homo sapiens, UniProt P00533, L858R/T790M)
T11 construct: purchased Eurofins DiscoverX (KINOMEscan)
Method: as §1

EPHA6 = biological target: T12, EPHA6 (Homo sapiens, UniProt Q9UF33)
T12 construct: purchased Eurofins DiscoverX (KINOMEscan)
Method: as §1

EPHA8 = biological target: T13, EPHA8 (Homo sapiens, UniProt P29322)
T13 construct: purchased Eurofins DiscoverX (KINOMEscan)
Method: as §1

FLT1 = biological target: T14, FLT1 (Homo sapiens, UniProt P17948)
T14 construct: purchased Eurofins DiscoverX (KINOMEscan)
Method: as §1

[2] = biological target: T15, JAK3(JH1domain-catalytic) (Homo sapiens, UniProt P52333)
T15 construct: JAK3(JH1domain-catalytic); purchased Eurofins DiscoverX (KINOMEscan)
Method: as §1

JNK2 = biological target: T16, JNK2 (Homo sapiens, UniProt P45984)
T16 construct: purchased Eurofins DiscoverX (KINOMEscan)
Method: as §1

KIT(A829P) = biological target: T17, KIT(A829P) (Homo sapiens, UniProt P10721, A829P)
T17 construct: purchased Eurofins DiscoverX (KINOMEscan)
T17 sequence (P10721 26-976 A829P): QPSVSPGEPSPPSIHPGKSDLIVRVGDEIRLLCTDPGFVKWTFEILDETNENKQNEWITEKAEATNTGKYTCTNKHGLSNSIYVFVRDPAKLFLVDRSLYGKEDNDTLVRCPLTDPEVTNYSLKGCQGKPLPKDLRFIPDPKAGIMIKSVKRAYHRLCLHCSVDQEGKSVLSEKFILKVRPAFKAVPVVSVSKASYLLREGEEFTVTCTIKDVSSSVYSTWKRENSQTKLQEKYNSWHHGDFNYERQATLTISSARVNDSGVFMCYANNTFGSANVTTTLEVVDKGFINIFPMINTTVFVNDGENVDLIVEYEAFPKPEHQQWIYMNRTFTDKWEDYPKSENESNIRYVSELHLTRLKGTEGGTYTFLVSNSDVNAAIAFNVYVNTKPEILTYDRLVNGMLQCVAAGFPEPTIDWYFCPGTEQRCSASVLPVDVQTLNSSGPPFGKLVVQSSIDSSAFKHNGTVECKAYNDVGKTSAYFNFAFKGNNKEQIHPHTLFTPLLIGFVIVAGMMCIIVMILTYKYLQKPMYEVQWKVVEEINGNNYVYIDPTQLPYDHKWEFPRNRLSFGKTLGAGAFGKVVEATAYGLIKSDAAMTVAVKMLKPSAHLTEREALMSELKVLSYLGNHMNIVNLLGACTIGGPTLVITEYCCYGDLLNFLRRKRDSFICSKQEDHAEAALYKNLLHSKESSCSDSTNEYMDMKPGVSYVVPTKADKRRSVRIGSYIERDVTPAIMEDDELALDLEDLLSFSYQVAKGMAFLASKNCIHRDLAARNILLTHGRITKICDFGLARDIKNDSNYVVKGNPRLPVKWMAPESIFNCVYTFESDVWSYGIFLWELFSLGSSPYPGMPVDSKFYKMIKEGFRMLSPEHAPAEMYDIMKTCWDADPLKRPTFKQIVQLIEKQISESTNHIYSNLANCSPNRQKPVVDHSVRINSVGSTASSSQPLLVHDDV
Method: as §1

KIT(V559D,T670I) = biological target: T18, KIT(V559D,T670I) (Homo sapiens, UniProt P10721, T670I/V559D)
T18 construct: purchased Eurofins DiscoverX (KINOMEscan)
Method: as §1

KIT-autoinhibited = biological target: T19, KIT-autoinhibited (Homo sapiens, UniProt P10721)
T19 construct: purchased Eurofins DiscoverX (KINOMEscan)
T19 sequence (P10721 26-976): as the sequence (P10721 26-976 A829P) above, with P804A counted along it
Method: as §1

LIMK2 = biological target: T20, LIMK2 (Homo sapiens, UniProt P53671)
T20 construct: purchased Eurofins DiscoverX (KINOMEscan)
Method: as §1

MAP3K4 = biological target: T21, MAP3K4 (Homo sapiens, UniProt Q9Y6R4)
T21 construct: purchased Eurofins DiscoverX (KINOMEscan)
Method: as §1

MAP4K4 = biological target: T22, MAP4K4 (Homo sapiens, UniProt O95819)
T22 construct: purchased Eurofins DiscoverX (KINOMEscan)
Method: as §1

MUSK = biological target: T23, MUSK (Homo sapiens, UniProt O15146)
T23 construct: purchased Eurofins DiscoverX (KINOMEscan)
Method: as §1

MYO3A = biological target: T24, MYO3A (Homo sapiens, UniProt Q8NEV4)
T24 construct: purchased Eurofins DiscoverX (KINOMEscan)
Method: as §1

NEK1 = biological target: T25, NEK1 (Homo sapiens, UniProt Q96PY6)
T25 construct: purchased Eurofins DiscoverX (KINOMEscan)
Method: as §1

PIK3CA(H1047L) = biological target: T26, PIK3CA(H1047L) (Homo sapiens, UniProt P42336, H1047L)
T26 construct: purchased Eurofins DiscoverX (KINOMEscan)
Method: as §1

PLK1 = biological target: T27, PLK1 (Homo sapiens, UniProt P53350)
T27 construct: purchased Eurofins DiscoverX (KINOMEscan)
T27 sequence (P53350 whole entry): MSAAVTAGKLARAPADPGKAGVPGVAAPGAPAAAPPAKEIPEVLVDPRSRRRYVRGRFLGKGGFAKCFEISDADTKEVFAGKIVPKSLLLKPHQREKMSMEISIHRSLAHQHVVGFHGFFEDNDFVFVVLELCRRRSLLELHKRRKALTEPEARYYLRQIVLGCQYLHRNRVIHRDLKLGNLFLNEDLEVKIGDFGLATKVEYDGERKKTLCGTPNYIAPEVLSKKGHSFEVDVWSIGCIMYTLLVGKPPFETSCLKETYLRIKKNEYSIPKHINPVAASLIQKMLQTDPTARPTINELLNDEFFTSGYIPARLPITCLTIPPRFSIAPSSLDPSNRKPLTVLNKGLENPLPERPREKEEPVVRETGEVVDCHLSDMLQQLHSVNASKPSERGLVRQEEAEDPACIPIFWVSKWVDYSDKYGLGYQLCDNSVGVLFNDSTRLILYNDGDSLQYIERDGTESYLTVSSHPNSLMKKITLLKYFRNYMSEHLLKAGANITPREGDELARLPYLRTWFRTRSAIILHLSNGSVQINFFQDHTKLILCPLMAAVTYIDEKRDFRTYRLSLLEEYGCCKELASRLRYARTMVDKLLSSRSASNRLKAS
Method: as §1

PRKCE = biological target: T28, PRKCE (Homo sapiens, UniProt Q02156)
T28 construct: purchased Eurofins DiscoverX (KINOMEscan)
Method: as §1

PRKCH = biological target: T29, PRKCH (Homo sapiens, UniProt P24723)
T29 construct: purchased Eurofins DiscoverX (KINOMEscan)
Method: as §1

RAF1 = biological target: T30, RAF1 (Homo sapiens, UniProt P04049)
T30 construct: purchased Eurofins DiscoverX (KINOMEscan)
T30 sequence (P04049 whole entry): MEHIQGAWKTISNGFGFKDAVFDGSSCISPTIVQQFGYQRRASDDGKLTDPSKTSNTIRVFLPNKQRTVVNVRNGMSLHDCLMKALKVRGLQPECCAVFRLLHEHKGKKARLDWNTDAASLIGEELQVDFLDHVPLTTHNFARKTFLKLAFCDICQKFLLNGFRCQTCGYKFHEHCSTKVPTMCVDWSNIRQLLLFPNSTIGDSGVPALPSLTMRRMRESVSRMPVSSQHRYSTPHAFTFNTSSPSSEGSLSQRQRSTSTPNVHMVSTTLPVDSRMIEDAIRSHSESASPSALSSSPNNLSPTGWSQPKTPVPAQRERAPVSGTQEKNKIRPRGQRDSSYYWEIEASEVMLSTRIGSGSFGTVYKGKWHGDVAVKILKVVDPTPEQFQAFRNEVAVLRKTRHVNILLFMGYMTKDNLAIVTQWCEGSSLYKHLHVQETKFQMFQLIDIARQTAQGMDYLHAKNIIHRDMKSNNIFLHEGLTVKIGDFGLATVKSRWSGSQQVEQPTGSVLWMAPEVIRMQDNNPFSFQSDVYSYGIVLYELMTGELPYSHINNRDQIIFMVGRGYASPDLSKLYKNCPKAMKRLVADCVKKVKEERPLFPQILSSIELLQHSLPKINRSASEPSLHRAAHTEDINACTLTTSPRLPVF
Method: as §1

[3] = biological target: T31, RPS6KA5(Kin.Dom.1-N-terminal) (Homo sapiens, UniProt O75582)
T31 construct: RPS6KA5(Kin.Dom.1-N-terminal); purchased Eurofins DiscoverX (KINOMEscan)
Method: as §1

SBK1 = biological target: T32, SBK1 (Homo sapiens, UniProt Q52WX2)
T32 construct: purchased Eurofins DiscoverX (KINOMEscan)
Method: as §1

SGK = biological target: T33, SGK (Homo sapiens, UniProt O00141)
T33 construct: purchased Eurofins DiscoverX (KINOMEscan)
Method: as §1

SLK = biological target: T34, SLK (Homo sapiens, UniProt Q9H2G2)
T34 construct: purchased Eurofins DiscoverX (KINOMEscan)
Method: as §1

SRMS = biological target: T35, SRMS (Homo sapiens, UniProt Q9H3Y6)
T35 construct: purchased Eurofins DiscoverX (KINOMEscan)
Method: as §1

STK33 = biological target: T36, STK33 (Homo sapiens, UniProt Q9BYT3)
T36 construct: purchased Eurofins DiscoverX (KINOMEscan)
Method: as §1

ULK3 = biological target: T37, ULK3 (Homo sapiens, UniProt Q6PHR2)
T37 construct: purchased Eurofins DiscoverX (KINOMEscan)
T37 sequence (Q6PHR2 whole entry): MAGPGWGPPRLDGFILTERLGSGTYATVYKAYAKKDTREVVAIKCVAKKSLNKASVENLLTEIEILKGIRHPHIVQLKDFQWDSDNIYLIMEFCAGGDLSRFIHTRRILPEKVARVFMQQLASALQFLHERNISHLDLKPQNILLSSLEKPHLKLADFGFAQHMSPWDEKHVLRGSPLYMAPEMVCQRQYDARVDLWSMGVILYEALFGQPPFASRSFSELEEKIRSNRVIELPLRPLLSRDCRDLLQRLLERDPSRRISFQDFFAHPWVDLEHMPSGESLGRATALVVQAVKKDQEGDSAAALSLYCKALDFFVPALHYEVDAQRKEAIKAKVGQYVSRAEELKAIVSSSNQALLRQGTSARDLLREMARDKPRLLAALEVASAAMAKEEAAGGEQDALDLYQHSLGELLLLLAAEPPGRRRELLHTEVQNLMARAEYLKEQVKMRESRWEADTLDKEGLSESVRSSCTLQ
Method: as §1

WEE1 = biological target: T38, WEE1 (Homo sapiens, UniProt P30291)
T38 construct: purchased EuroFins DiscoverX (Fremont, CA, USA)
Method: as §1

WNK1 = biological target: T39, WNK1 (Homo sapiens, UniProt Q9H4A3)
T39 construct: purchased EuroFins DiscoverX (Fremont, CA, USA)
Method: as §1

YANK3 = biological target: T40, YANK3 (Homo sapiens, UniProt Q86UX6)
T40 construct: purchased EuroFins DiscoverX (Fremont, CA, USA)
Method: as §1

YSK1 = biological target: T41, YSK1 (Homo sapiens, UniProt O00506)
T41 construct: purchased EuroFins DiscoverX (Fremont, CA, USA)
T41 sequence (O00506 whole entry): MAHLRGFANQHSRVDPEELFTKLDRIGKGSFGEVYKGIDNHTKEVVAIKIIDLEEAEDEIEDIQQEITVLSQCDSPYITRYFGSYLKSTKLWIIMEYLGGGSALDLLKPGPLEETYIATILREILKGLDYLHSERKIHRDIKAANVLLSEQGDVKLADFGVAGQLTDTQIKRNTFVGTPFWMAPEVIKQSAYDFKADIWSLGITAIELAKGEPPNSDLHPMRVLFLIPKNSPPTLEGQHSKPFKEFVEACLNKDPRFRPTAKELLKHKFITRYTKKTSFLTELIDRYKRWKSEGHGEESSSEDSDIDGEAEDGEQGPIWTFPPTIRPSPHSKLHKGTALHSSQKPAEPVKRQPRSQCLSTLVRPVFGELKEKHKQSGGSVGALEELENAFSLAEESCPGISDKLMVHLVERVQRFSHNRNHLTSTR
Method: as §1

Measured: activity at 1 µM

Brc1ccc2nccc(Nc3ccc4cn[nH]c4c3)c2c1 [Compound 35, 6-Bromo-N-(1H-indazol-6-yl)quinolin-4-amine]
83%: EGFR(G719C) | [2]
99%: SBK1
98%: EGFR(L858R,T790M)
81%: ULK3
95%: [1] | PRKCE
79%: DDR1
87%: PIK3CA(H1047L) | SRMS
100%: all other assays above

Source: article PMC6891286, “Towards the Development of an In vivo Chemical Probe for Cyclin G Associated Kinase (GAK)” (Molecules, 2019)
